# Molecular target: T1, GR (Homo sapiens, UniProt P04150)
# T1 construct: expressed in transfected cells; host or cells: CHO-K1
# T1 sequence (P04150 1-777): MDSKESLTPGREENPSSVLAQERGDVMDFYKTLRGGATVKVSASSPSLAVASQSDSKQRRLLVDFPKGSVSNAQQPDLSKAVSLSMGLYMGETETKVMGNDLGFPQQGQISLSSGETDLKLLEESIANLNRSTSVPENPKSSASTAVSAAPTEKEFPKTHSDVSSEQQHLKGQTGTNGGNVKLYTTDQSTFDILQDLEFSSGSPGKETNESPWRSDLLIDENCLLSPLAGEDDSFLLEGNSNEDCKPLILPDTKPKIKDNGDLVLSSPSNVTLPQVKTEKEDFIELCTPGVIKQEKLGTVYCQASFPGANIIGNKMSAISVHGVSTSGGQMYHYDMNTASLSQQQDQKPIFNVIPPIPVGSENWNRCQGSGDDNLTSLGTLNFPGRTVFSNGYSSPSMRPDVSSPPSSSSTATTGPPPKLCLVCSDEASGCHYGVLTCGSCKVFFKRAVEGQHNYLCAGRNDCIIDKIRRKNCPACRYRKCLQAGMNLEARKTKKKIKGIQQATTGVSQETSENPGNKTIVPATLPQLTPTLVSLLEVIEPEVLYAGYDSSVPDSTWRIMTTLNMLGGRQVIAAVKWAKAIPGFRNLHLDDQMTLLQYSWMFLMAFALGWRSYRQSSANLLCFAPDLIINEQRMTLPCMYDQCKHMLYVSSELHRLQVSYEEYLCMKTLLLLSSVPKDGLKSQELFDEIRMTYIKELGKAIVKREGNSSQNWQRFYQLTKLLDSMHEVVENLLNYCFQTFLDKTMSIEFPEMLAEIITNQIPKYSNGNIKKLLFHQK
# Assay: In Vitro GR Luciferase Reporter Assay (antagonist mode, CHO-K1-GR-MMTV-Luc reporter cells)
# Format: cell-based
# Details: antagonist assay with 10 nM Dexamethasone, 18-24 hours
# Method in brief: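 CHO-K1-GR-MMTV-Luc cells in phenol red-free DMEM with 10% CSS, stimulated with 10 nM dexamethasone (final) and treated with 8-point 1:5 compound dilutions for about 18-24 h at 37° C. Luciferase measured by OneGlo luminescence; IC50 derived for inhibition of GR activity.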
row,Structure (SMILES),IC50 [nM]
1,"CN([C@H]1CCC2=Cc3c(cnn3-c3ccc(F)cc3)C[C@]2(C(=O)c2ccccn2)C1)S(=O)(=O)c1ccccc1 [Example 80, N-((4aS,6S)-1-(4-fluorophenyl)-4a-picolinoyl-4,4a,5,6,7,8-hexahydro-1H-benzo[f]indazol-6-yl)-N-methylbenzenesulfonamide]",≤ 100
2,"CN([C@H]1CCC2=Cc3c(cnn3-c3ccc(F)cc3)C[C@]2(C(=O)c2ccccn2)C1)S(=O)(=O)c1cccc(Cl)c1 [Example 82, 3-chloro-N-((4aS,6S)-1-(4-fluorophenyl)-4a-picolinoyl-4,4a,5,6,7,8-hexahydro-1H-benzo[f]indazol-6-yl)-N-methylbenzenesulfonamide]",≤ 100
3,"CN([C@H]1CCC2=Cc3c(cnn3-c3ccc(F)cc3)C[C@]2(C(=O)c2ccccn2)C1)S(=O)(=O)c1cccnc1 [Example 84, N-((4aS,6S)-1-(4-fluorophenyl)-4a-picolinoyl-4,4a,5,6,7,8-hexahydro-1H-benzo[f]indazol-6-yl)-N-methylpyridine-3-sulfonamide]",≤ 100
4,"CN([C@@H]1CCC2=Cc3c(cnn3-c3ccc(F)cc3)C[C@]2(C(=O)c2cc(C(F)(F)F)ccn2)C1)S(=O)(=O)c1cnn(C)c1 [Example 95, N-((4aS,6R)-1-(4-fluorophenyl)-4a-(4-(trifluoromethyl)picolinoyl)-4,4a,5,6,7,8-hexahydro-1H-benzo[f]indazol-6-yl)-N,1-dimethyl-1H-pyrazole-4-sulfonamide]",≤ 100
5,"CN(C(=O)c1cnn(C)c1)[C@H]1CCC2=Cc3c(cnn3-c3ccc(F)cc3)C[C@]2(C(=O)c2cc(C(F)(F)F)ccn2)C1 [Example 96, N-((4aS,6S)-1-(4-fluorophenyl)-4a-(4-(trifluoromethyl)picolinoyl)-4,4a,5,6,7,8-hexahydro-1H-benzo[f]indazol-6-yl)-N,1-dimethyl-1H-pyrazole-4-carboxamide]",≤ 100
6,"CC(C)n1cc(S(=O)(=O)N(C)[C@H]2CCC3=Cc4c(cnn4-c4ccc(F)cc4)C[C@]3(C(=O)c3cc(C(F)(F)F)ccn3)C2)cn1 [Example 97, N-((4aS,6S)-1-(4-fluorophenyl)-4a-(4-(trifluoromethyl)picolinoyl)-4,4a,5,6,7,8-hexahydro-1H-benzo[f]indazol-6-yl)-1-isopropyl-N-methyl-1H-pyrazole-4-sulfonamide]",≤ 100
7,"CN([C@H]1CCC2=Cc3c(cnn3-c3ccc(F)cc3)C[C@]2(C(=O)c2nccs2)C1)S(=O)(=O)c1ccc(F)cc1 [Example 106, 4-fluoro-N-((4aS,6S)-1-(4-fluorophenyl)-4a-(thiazole-2-carbonyl)-4,4a,5,6,7,8-hexahydro-1H-benzo[f]indazol-6-yl)-N-methylbenzenesulfonamide]",≤ 100
8,"CN([C@H]1CCC2=Cc3c(cnn3-c3ccc(F)cc3)C[C@]2(C(=O)c2cc(C(F)(F)F)ccn2)C1)S(=O)(=O)c1cnn(CC2CC2)c1 [Example 108, 1-(cyclopropylmethyl)-N-((4aS,6S)-1-(4-fluorophenyl)-4a-(4-(trifluoromethyl)picolinoyl)-4,4a,5,6,7,8-hexahydro-1H-benzo[f]indazol-6-yl)-N-methyl-1H-pyrazole-4-sulfonamide]",≤ 100

# More lines, now with the values ahead:
row,IC50 [nM],Structure (SMILES)
1,≤ 100,"CN([C@H]1CCC2=Cc3c(cnn3-c3ccc(F)cc3)C[C@]2(C(=O)c2ccccn2)C1)S(=O)(=O)c1cccc(C(F)(F)F)c1 [Example 83, N-((4aS,6S)-1-(4-fluorophenyl)-4a-picolinoyl-4,4a,5,6,7,8-hexahydro-1H-benzo[f]indazol-6-yl)-N-methyl-3-(trifluoromethyl)benzenesulfonamide]"
2,≤ 100,"CN([C@H]1CCC2=Cc3c(cnn3-c3ccc(F)cc3)C[C@]2(C(=O)c2ccccn2)C1)S(=O)(=O)c1ccc(C(F)(F)F)cc1 [Example 85, N-((4aS,6S)-1-(4-fluorophenyl)-4a-picolinoyl-4,4a,5,6,7,8-hexahydro-1H-benzo[f]indazol-6-yl)-N-methyl-4-(trifluoromethyl)benzenesulfonamide]"
3,≤ 100,"CN([C@H]1CCC2=Cc3c(cnn3-c3ccc(F)cc3)C[C@]2(C(=O)c2cc(C(F)(F)F)ccn2)C1)S(=O)(=O)c1ccc(C(F)(F)F)cc1 [Example 86, N-((4aS,6S)-1-(4-fluorophenyl)-4a-(4-(trifluoromethyl)picolinoyl)-4,4a,5,6,7,8-hexahydro-1H-benzo[f]indazol-6-yl)-N-methyl-4-(trifluoromethyl)benzenesulfonamide]"
4,≤ 100,"CCn1cc(S(=O)(=O)N(C)[C@H]2CCC3=Cc4c(cnn4-c4ccc(F)cc4)C[C@]3(C(=O)c3cc(C(F)(F)F)ccn3)C2)cn1 [Example 87, 1-ethyl-N-((4aS,6S)-1-(4-fluorophenyl)-4a-(4-(trifluoromethyl)picolinoyl)-4,4a,5,6,7,8-hexahydro-1H-benzo[f]indazol-6-yl)-N-methyl-1H-pyrazole-4-sulfonamide]"
5,≤ 100,"CN(C(=O)c1ccccc1)[C@H]1CCC2=Cc3c(cnn3-c3ccc(F)cc3)C[C@]2(C(=O)c2ccccn2)C1 [Example 89, N-((4aS,6S)-1-(4-fluorophenyl)-4a-picolinoyl-4,4a,5,6,7,8-hexahydro-1H-benzo[f]indazol-6-yl)-N-methylbenzamide]"
6,100 to 1000,"CN(c1ccccc1)S(=O)(=O)[C@H]1CCC2=Cc3c(cnn3-c3ccc(F)cc3)C[C@]2(C(=O)c2ccccn2)C1 [Example 92, (4aS,6S)-1-(4-fluorophenyl)-N-methyl-N-phenyl-4a-picolinoyl-4,4a,5,6,7,8-hexahydro-1H-benzo[f]indazole-6-sulfonamide]"
7,100 to 1000,"CN([C@H]1CCC2=Cc3c(cnn3-c3ccc(F)cc3)C[C@]2(C(=O)c2cc(C(F)(F)F)ccn2)C1)S(=O)(=O)c1cnn(C)c1 [Example 100, N-((4aS,6S)-1-(4-fluorophenyl)-4a-(4-(trifluoromethyl)picolinoyl)-4,4a,5,6,7,8-hexahydro-1H-benzo[f]indazol-6-yl)-N,1-dimethyl-1H-pyrazole-4-sulfonamide]"
8,100 to 1000,"CN(c1cnn(C)c1)S(=O)(=O)[C@H]1CCC2=Cc3c(cnn3-c3ccc(F)cc3)C[C@]2(C(=O)c2cc(C(F)(F)F)ccn2)C1 [Example 101, (4aS,6S)-1-(4-fluorophenyl)-N-methyl-N-(1-methyl-1H-pyrazol-4-yl)-4a-(4-(trifluoromethyl)picolinoyl)-4,4a,5,6,7,8-hexahydro-1H-benzo[f]indazole-6-sulfonamide]"
9,≤ 100,"CN([C@H]1CCC2=Cc3c(cnn3-c3ccc(F)cc3)C[C@]2(C(=O)c2ccc(C(F)(F)F)cn2)C1)S(=O)(=O)c1ccc(Cl)cc1 [Example 105, 4-chloro-N-((4aS,6S)-1-(4-fluorophenyl)-4a-(5-(trifluoromethyl)picolinoyl)-4,4a,5,6,7,8-hexahydro-1H-benzo[f]indazol-6-yl)-N-methylbenzenesulfonamide]"
10,≤ 100,"CCN([C@H]1CCC2=Cc3c(cnn3-c3ccc(F)cc3)C[C@]2(C(=O)c2ccc(C3CC3)cn2)C1)S(=O)(=O)c1ccc(F)cc1 [Example 109, N-((4aS,6S)-4a-(5-cyclopropylpicolinoyl)-1-(4-fluorophenyl)-4,4a,5,6,7,8-hexahydro-1H-benzo[f]indazol-6-yl)-N-ethyl-4-fluorobenzenesulfonamide]"
11,≤ 100,"CCN([C@H]1CCC2=Cc3c(cnn3-c3ccc(F)cc3)C[C@]2(C(=O)c2ccc(C3CC3)cn2)C1)S(=O)(=O)c1ccc(Cl)cc1 [Example 110, 4-chloro-N-((4aS,6S)-4a-(5-cyclopropylpicolinoyl)-1-(4-fluorophenyl)-4,4a,5,6,7,8-hexahydro-1H-benzo[f]indazol-6-yl)-N-ethylbenzenesulfonamide]"

# Same assay, conditions: antagonist mode, 10 nM Dexamethasone
row,IC50 [nM],Structure (SMILES)
1,≤ 100,"O=C(c1cc(C(F)(F)F)ccn1)[C@]12Cc3cnn(-c4ccc(F)cc4)c3C=C1CC[C@H](S(=O)(=O)c1cnn(CC(F)(F)F)n1)C2 [Example 115, ((4aS,6S)-1-(4-Fluorophenyl)-6-((2-(2,2,2-trifluoroethyl)-2H-1,2,3-triazol-4-yl)sulfonyl)-1,4,5,6,7,8-hexahydro-4aH-benzo[f]indazol-4a-yl)(4-(trifluoromethyl)pyridin-2-yl)methanone]"
2,≤ 100,"CCn1ncc(S(=O)(=O)[C@H]2CCC3=Cc4c(cnn4-c4ccc(F)cc4)C[C@]3(C(=O)c3ccc(C4CC4)cn3)C2)n1 [Example 123, (5-cyclopropylpyridin-2-yl)((4aS,6S)-6-((2-ethyl-2H-1,2,3-triazol-4-yl)sulfonyl)-1-(4-fluorophenyl)-1,4,5,6,7,8-hexahydro-4aH-benzo[f]indazol-4a-yl)methanone]"
3,≤ 100,"CN([C@H]1CCC2=Cc3c(cnn3-c3ccc(F)cc3)C[C@]2(C(=O)c2ccc(C3CC3)cn2)C1)S(=O)(=O)c1ccc(F)cc1 [Example 124, N-((4aS,6S)-4a-(5-cyclopropylpicolinoyl)-1-(4-fluorophenyl)-4,4a,5,6,7,8-hexahydro-1H-benzo[f]indazol-6-yl)-4-fluoro-N-methylbenzenesulfonamide]"
